According to US11466044B2 (WAYNE STATE UNIVERSITY, priority 2017, dated 2022):
Converted amounts (≈) assume the structure as drawn.

Columns and labels:
P aeruginosa = experiment: MIC by broth microdilution, P aeruginosa isolates; assay type: cell-based, Pseudomonas aeruginosa
[1] = system: Enterobacter cloacae AG290; experiment: MIC by broth microdilution, Enterobacter cloacae; assay type: cell-based; details: strain AG290 Enterobacter cloacae
MRSA = experiment: MIC by broth microdilution, MRSA isolates; assay type: cell-based; details: for MIC AG038 MRSA: clinical isolate AG038
[2] = system: Acinetobacter baumannii pittii AG225; experiment: MIC by broth microdilution, Acinetobacter baumannii; assay type: cell-based; details: strain AG225 Acinetobacter baumannii pittii
[3] = system: E coli carrying specific resistance determinants; experiment: MIC by broth microdilution, E coli carrying specific resistance determinants; assay type: cell-based
M. smegmatis SZ380 = experiment: MIC by broth microdilution, M. smegmatis; details: strain SZ380 Mycobacterium smegmatis
E coli wild type = experiment: MIC by broth microdilution, wild type E coli; assay type: cell-based; details: for MIC AG001 E. coli WT: clinical isolate AG001, WT
[4] = system: Klebsiella pneumonia AG215; experiment: MIC by broth microdilution, Klebsiella pneumonia; assay type: cell-based; details: strain AG215 Klebsiella pneumonia
[5] = system: A1555G mutant mitochondrial ribosome (human chimeric); experiment: in-vitro translation assay, human chimeric ribosomes, A1555G mutant mitochondrial decoding site; assay type: biochemical; details: human mitochondrial decoding site with A1555G point mutation; read-out: IC50 Mitoch. A1555G
Source text: (§1) The antiribosomal activity of these compounds was investigated with cell-free translation assays using both wild type bacterial ribosomes and hybrid ribosomes carrying eukaryotic decoding A sites enabling the prediction of selectivity.

[6] = system: wild type bacterial ribosomes; experiment: in-vitro translation assay, bacterial ribosomes; assay type: biochemical; details: Mycobacterium smegmatis ribosomes; read-out: IC50 Bacterial
Source text: as §1

[7] = system: cytosolic ribosome (human chimeric); assay type: biochemical; details: ribosomes with a human cytosolic decoding site; read-out: IC50 Cytosolic
Source text: as §1

[8] = system: mitochondrial ribosome (human chimeric); assay type: biochemical; details: ribosomes with a human mitochondrial decoding site; read-out: IC50 Mitoch.
Source text: as §1

Molecule: 5″-Deoxy-5″-ureido-paromomycin acetate salt [Compound 141]
- MIC50 P aeruginosa AG31 (P aeruginosa; strain AG31, Table 1 (Example 1)): >128 µg/mL
- MIC50 P aeruginosa AG32 (P aeruginosa; strain AG32, Table 1 (Example 1)): >128 µg/mL
- MIC50 P aeruginosa AG33 (P aeruginosa; strain AG33, Table 1 (Example 1)): >128 µg/mL
- MIC50 P aeruginosa AG86 (P aeruginosa; strain AG86, Table 1 (Example 1)): >128 µg/mL
- MIC AG220 P. aerugin (P aeruginosa; strain AG220 Pseudomonas aeruginosa ATCC27853): >64 µg/mL
- MIC AG290 E. cloacae [1]: 2 to 4 µg/mL
- MIC50 MRSA AG38 (MRSA; strain AG38, Table 1 (Example 1)): 4 to 8 µg/mL
- MIC50 MRSA AG39 (MRSA; strain AG39, Table 1 (Example 1)): >128 µg/mL
- MIC50 MRSA AG42 (MRSA; strain AG42, Table 1 (Example 1)): >128 µg/mL
- MIC50 MRSA AG44 (MRSA; strain AG44, Table 1 (Example 1)): 4 µg/mL
- MIC AG225 A. baumannii [2]: 4 µg/mL
- MIC AG037 E. coli APH(3′)-III ([3]; engineered strain AG037 APH(3′)-III, Table 2 (Example 4)): >128 µg/mL
- MIC pH421 E. coli APH(3′)-I ([3]; engineered strain pH421 APH(3′)-I, Table 2 (Example 4)): >64 μg/ml
- MIC pH422 E. coli APH(3′)-II ([3]; engineered strain pH422 APH(3′)-II, Table 2 (Example 4)): >64 μg/ml
- MIC pH423 E. coli APH(3′)-VI ([3]; engineered strain pH423 APH(3′)-VI, Table 2 (Example 4)): >64 μg/ml
- MIC SZ380 M. smegmatis (M. smegmatis SZ380): 2 µg/mL
- MIC E coli AG006 wt (E coli wild type; AG006 wt, Table 2 (Example 1)): 1 µg/mL
- MIC AG160 E. coli WT (E coli wild type; clinical isolate AG160 WT, Table 2 (Example 4)): 4 µg/mL
- MIC pH430 E. coli WT (E coli wild type; engineered strain pH430 WT, Table 2 (Example 4)): 2-4 μg/ml
- MIC50 E coli AG01 (E coli wild type; strain AG01, Table 1 (Example 1)): 16 µg/mL
- MIC50 E coli AG03 (E coli wild type; strain AG03, Table 1 (Example 1)): 16 µg/mL
- MIC50 E coli AG55 (E coli wild type; strain AG55, Table 1 (Example 1)): 16 µg/mL
- MIC AG212 E. coli (E coli wild type; strain AG212 E. coli (ATCC25922)): 4 µg/mL
- MIC AG215 K. pneumon [4]: 2 µg/mL

Molecule: NCC1OC(OC2C(CO)OC(OC3C(O)C(N)CC(N)C3OC3OC4C(O)COC4C(O)C3N)C2O)C(N)C(O)C1O (stereo not shown) [DC204]
- MIC AG038 MRSA (MRSA): 8 µg/mL (≈ 12.7 µM)
- IC50 [5]: 117 µM
- IC50 [6]: 0.2 µM
- MIC AG001 E. coli WT (E coli wild type): 16 µg/mL (≈ 25.5 µM)
- IC50 [7]: 276 µM
- IC50 [8]: 131 µM

Molecule: NCC1OC(OC2C(CO)OC(OC3C(O)C(N)CC(N)C3OC3OC4C(O)CCOC4C(O)C3N)C2O)C(N)C(O)C1O (stereo not shown) [DC210]
- MIC AG031 P. aer. APH(3′)-II (P aeruginosa; clinical isolate AG031, APH(3′)-II): 64 µg/mL (≈ 99.7 µM)
- MIC AG038 MRSA (MRSA): 4 µg/mL (≈ 6.23 µM)
- IC50 [5]: 44 µM
- MIC AG036 ANT(4′,4′′) ([3]; E. coli strain AG036, ANT(4′,4′′)): 2 µg/mL (≈ 3.12 µM)
- MIC AG037 APH(3′)-III ([3]; E. coli strain AG037, APH(3′)-III): >128 µg/mL
- MIC pH421 APH(3)-I ([3]; E. coli strain pH421, APH(3)-I): >128 μg/ml
- MIC pH422 APH(3′)-II ([3]; E. coli strain pH422, APH(3′)-II): 32 μg/ml
- MIC pH423 APH(3′)-VI ([3]; E. coli strain pH423, APH(3′)-VI): 4 μg/ml
- IC50 [6]: 0.04 µM
- MIC pH430 WT (E coli wild type; E. coli strain pH430, WT): 2-4 μg/ml
- MIC AG001 E. coli WT (E coli wild type): 4 µg/mL (≈ 6.23 µM)
- IC50 [7]: 50 µM
- IC50 [8]: 329 µM
